Results on six compounds are retold here after ChEMBL document CHEMBL1201862, “PubChem BioAssay data set” (2004).

Active and inactive are the calls of the source.

A short description of assay [1]: Shn3 3'UTR reporter signal decrease – cell-based, Clone20 osteoblasts, firefly luciferase, cherry-pick, set 2, Schnurri-3 inhibitor project, dose response (AID 720490).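 Further: actives lower the luminescence signal as inhibitors.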 It counts as functional.
Assay [2] in a line: reduction of Shn3 3'UTR-driven luciferase in osteoblasts – cell-based, Clone20 osteoblasts, firefly luciferase, cherry-picked, dose response (AID 624132).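 Further: firefly luciferase luminescence from reporter carrying the Shn3 3'UTR in osteoblasts.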 It counts as functional.
A short description of assay [3]: non-specific 3'UTR reporter inhibition in Clone20-Shn3RL – cell-based, Renilla luciferase, cherry-picked, counter-screen for Shn3 inhibitor project, dose response (AID 624133). The format is functional. On the technique in general: A counterscreen serves to expose hits that act by an unwanted route or on another target.
Assay [4] can be described thus: MITF Orthogonal Assay: SK-MEL-5 CTG Assay Measured in Cell-Based System Using Plate Reader - 2084-02_Inhibitor_Dose_DryPowder_Activity_Set7. It counts as functional.
Assay [5] can be described thus: MITF: Counter assay: A375 proliferation Measured in Cell-Based System Using Plate Reader - 2084-03_Inhibitor_Dose_DryPowder_Activity_Set8. The format is functional. The note with it: A-375.
Assay [6] is described as follows: inhibitors of TRPM1-promoter reporter in SK-MEL-5 – cell-based, luciferase, dry powder, set 8, MITF inhibitor project, dose response (AID 624430). It counts as functional.
The target in assay [7] is Metabotropic glutamate receptor 5 (Rattus norvegicus, UniProt P31424). Description: Identification of a glycine sulfonamide based non-MPEP site positive allosteric potentiator (PAM) of mGlu5 (calcium_assay). The format is functional.
In another assay the target is Ephrin type-A receptor 4 (Mus musculus, UniProt Q03137). Kind of assay: EphA4 ligand-binding antagonists – biochemical, colorimetric, mouse EphA4, primary screen (AID 689). It counts as functional.
The nature of assay [8]: anti-trypanosomal activity in BESM host cells – imaging, CA-I/72 strain, bovine embryo skeletal muscle, dry powder, dose response (AID 651885). The format is functional, cell-based.
The nature of assay [9]: T. cruzi growth inhibition in host cells, dose response, cell-based, plate reader, dry powder, set 2 (AID 652275). The format is functional.
Assay [10] is described as follows: mouse embryonic fibroblast toxicity – cell-based, plate reader, dry powder, set 2, cytotoxicity control, dose response (AID 652280). The format is functional. The note with it: NIH3T3.
A short description of the next assay: cells. The note with it: HEK293.
In assay [11] the target is COUP transcription factor 2 (Homo sapiens, UniProt P24468). Description: Luminescence-based cell-based high throughput dose response assay to identify inhibitors of COUP-TFII (NR2F2). The format is functional.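 Further: HEK293 cells transiently cotransfected with COUP-TFII expression vector and reporter; luciferase reporter luminescence driven by COUP-TFII from the pX2-168 reporter plasmid.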
In assay [12] the target is T1, Replicative DNA helicase DnaB (Mycobacterium tuberculosis, UniProt P9WMR3).
T1 sequence (P9WMR3 whole entry): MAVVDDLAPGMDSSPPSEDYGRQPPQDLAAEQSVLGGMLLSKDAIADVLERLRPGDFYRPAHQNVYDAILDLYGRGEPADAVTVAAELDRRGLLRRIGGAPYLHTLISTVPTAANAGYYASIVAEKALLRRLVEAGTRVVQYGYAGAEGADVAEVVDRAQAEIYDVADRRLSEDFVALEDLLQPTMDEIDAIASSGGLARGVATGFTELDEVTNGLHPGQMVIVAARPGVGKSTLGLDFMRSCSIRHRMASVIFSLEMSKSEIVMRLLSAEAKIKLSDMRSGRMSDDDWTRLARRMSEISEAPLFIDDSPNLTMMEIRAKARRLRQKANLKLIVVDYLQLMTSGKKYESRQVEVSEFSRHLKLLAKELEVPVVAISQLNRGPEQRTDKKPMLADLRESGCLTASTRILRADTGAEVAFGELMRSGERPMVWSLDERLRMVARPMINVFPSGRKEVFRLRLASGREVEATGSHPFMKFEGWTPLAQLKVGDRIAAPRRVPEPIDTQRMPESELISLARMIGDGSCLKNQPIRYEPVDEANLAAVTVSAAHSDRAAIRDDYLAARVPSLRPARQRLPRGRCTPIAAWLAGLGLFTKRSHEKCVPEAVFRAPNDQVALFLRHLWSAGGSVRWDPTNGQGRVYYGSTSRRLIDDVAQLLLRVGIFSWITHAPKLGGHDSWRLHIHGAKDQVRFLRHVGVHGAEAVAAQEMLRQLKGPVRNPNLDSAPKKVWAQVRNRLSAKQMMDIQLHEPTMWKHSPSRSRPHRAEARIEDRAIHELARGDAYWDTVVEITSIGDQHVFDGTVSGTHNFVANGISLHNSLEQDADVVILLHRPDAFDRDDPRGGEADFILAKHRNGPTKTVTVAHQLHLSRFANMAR
Description: DnaB intein splicing inhibitors, dose response, biochemical, cell-free fluorescence (AID 449749). It counts as functional.

The subject of the next assay is INS1. Description: INS-1E survival protection against cytokine death – cell-based, luminescence, retest, dose response (AID 449756).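 Further: cell death triggered by IL-1 beta plus TNF-alpha plus IFN-gamma mixture; protective hits raise ATP signal compared with cytokine alone wells.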 The format is functional. The note with it: Rattus norvegicus.
Another assay has as its target T2, Protein RecA (Mycobacterium tuberculosis, UniProt P9WHJ3).
T2 sequence (P9WHJ3 whole entry): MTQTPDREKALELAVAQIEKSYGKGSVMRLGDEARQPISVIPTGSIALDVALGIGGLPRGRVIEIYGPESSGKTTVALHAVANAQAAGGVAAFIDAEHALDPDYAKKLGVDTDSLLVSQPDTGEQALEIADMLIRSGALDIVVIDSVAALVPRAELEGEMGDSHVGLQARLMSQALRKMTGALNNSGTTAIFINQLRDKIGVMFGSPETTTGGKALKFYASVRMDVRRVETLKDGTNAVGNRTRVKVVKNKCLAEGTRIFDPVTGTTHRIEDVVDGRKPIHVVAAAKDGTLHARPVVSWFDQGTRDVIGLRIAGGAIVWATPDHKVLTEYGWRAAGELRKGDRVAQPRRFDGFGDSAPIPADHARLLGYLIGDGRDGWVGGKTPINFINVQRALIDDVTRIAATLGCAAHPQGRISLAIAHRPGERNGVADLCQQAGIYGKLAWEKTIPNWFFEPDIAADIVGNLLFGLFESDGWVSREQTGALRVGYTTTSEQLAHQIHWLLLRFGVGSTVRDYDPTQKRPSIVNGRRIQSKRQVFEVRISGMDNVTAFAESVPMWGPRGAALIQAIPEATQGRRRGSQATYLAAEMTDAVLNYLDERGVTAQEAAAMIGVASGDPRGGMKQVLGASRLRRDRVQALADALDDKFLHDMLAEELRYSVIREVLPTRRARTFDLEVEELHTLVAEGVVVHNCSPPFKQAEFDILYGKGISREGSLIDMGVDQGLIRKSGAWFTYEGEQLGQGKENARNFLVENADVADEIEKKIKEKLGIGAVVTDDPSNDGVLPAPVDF
Description: Fluorescence Cell-Free Homogeneous Dose Retest to Identify Inhibitors of RecA-Intein Splicing Activity. [Related pubchem assays (depositor defined):AID2097, AID2223, AID489010, AID492950]. It counts as functional.

Assay [13] is described as follows: loss of viability in HepG2 cells – cell-based, CellTiter-Glo, cherry-picked, cytotoxicity control for Shn3 inhibitor project, dose response (AID 624134). It counts as functional. Background: In ATP-based viability assays light output follows the ATP content of the culture.

Chain of Ephrin type-A receptor 4 (Q03137 whole entry): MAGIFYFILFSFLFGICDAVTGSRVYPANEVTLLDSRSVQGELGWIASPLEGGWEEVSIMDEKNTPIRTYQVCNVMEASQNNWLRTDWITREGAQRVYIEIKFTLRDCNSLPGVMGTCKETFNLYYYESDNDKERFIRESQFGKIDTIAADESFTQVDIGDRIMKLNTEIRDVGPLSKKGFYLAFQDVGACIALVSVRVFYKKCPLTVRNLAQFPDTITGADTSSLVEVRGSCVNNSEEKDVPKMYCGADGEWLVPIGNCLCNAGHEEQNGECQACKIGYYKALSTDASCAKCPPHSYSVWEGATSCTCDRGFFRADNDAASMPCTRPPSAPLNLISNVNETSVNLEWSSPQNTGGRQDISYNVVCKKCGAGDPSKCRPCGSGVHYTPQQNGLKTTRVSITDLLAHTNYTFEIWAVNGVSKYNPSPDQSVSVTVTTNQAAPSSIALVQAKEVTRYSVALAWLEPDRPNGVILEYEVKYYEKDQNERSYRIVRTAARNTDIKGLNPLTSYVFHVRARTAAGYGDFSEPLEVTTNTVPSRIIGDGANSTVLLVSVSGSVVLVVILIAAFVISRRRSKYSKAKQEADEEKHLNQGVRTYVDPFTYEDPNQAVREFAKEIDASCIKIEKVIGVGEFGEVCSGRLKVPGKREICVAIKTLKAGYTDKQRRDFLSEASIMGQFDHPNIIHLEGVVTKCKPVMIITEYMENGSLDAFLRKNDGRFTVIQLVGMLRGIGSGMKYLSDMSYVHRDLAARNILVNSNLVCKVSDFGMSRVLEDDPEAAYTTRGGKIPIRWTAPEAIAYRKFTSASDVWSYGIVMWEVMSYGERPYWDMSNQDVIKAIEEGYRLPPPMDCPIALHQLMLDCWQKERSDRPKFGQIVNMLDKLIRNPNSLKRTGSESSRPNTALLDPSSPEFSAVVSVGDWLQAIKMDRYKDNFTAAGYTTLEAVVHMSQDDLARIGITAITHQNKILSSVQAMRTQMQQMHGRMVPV
Chain of Metabotropic glutamate receptor 5 (P31424 whole entry): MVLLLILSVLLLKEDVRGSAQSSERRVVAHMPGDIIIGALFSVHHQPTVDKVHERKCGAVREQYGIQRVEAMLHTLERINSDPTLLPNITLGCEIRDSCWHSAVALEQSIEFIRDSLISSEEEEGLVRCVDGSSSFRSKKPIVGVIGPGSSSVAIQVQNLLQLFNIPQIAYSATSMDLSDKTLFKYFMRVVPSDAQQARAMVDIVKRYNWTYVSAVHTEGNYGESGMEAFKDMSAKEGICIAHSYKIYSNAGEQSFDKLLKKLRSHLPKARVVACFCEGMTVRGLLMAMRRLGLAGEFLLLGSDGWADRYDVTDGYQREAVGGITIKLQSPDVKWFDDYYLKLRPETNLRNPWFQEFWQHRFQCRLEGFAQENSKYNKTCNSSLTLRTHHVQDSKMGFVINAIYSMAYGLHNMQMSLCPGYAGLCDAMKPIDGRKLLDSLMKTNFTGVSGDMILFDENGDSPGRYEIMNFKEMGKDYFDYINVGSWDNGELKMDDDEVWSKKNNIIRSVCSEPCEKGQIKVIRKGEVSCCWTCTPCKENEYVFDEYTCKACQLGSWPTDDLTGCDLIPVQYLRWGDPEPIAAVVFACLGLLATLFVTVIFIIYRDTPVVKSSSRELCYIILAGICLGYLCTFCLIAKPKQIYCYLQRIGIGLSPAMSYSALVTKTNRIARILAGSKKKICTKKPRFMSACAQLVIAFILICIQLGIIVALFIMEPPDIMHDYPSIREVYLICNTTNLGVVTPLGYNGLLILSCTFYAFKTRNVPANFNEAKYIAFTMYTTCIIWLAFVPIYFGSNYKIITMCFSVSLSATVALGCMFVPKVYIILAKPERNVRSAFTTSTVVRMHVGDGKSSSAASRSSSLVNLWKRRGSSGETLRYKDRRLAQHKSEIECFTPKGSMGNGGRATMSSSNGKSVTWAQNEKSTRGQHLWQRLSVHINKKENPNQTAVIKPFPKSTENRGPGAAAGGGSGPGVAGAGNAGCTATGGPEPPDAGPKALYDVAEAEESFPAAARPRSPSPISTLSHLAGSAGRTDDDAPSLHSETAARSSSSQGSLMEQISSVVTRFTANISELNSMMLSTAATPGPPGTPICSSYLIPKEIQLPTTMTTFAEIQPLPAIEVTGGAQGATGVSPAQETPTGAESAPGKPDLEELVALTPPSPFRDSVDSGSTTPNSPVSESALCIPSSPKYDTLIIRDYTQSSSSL
Chain of COUP transcription factor 2 (P24468 whole entry): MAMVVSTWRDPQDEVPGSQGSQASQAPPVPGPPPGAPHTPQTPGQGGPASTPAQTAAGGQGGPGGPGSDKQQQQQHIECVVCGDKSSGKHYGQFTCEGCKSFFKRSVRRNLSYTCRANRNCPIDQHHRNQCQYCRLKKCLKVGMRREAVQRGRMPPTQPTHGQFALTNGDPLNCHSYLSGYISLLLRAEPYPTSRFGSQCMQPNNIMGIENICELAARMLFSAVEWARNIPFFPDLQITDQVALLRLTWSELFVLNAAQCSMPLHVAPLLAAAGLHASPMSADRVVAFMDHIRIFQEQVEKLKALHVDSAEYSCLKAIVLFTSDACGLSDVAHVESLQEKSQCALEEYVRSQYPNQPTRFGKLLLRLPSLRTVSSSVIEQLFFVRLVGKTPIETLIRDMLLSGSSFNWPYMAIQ

For orientation: AC50 means the concentration giving half of the maximal activity seen. As for `O=C(COC(=O)c1[nH]nc2ccccc12)Nc1ccc(S(=O)(=O)N2CCCC2)cc1`, the AC50 in [1] was 31.8 µM (active); in assay [2] it was 5.33 µM (active); in [3], 36.1 µM (active).
On to `CCN1CCN(C2=C(Nc3cccc(Cl)c3)C(=O)c3ccccc3C2=O)CC1`, for which the AC50 in [4] is 10.1 µM (active); in assay [5], 31.7 µM (active); in assay [6], 2.94 µM (active).
In general, EC50 refers to the concentration needed to bring the measured effect to its halfway point. One may read the IC50 as the concentration that gives 50% inhibition. Regarding `CS(=O)(=O)N(CC(=O)Nc1cccc(Cl)c1)c1ccccc1Cl`, the EC50 in assay [7] was 0.051 µM. The IC50 on Ephrin type-A receptor 4 is on record as > 100 µM (not active).
As for `C[C@H]1CN([C@@H](C)CO)C(=O)c2cccc(NC(=O)c3ccncc3)c2O[C@@H]1CN(C)Cc1ccc(Cl)c(Cl)c1`, the IC50 in assay [8] is 0.00211 µM (active). In addition, the AC50 in assay [9] was 0.00674 µM (active); in [10] it was 13.2 µM (active).
Regarding `COc1ccc(CCNC(=O)CSc2cn(Cc3cccc(C)c3)c3ccccc23)cc1OC`, the AC50 in “cells” is > 52 µM (inactive).
On to `Cc1cccc(Nc2nc(NCc3ccco3)c3ccccc3n2)c1`, for which the IC50 in assay [11] was 8.5 µM (active). Besides, the AC50 in [12] is 5.65 µM (active); in the assay with INS1 it was 2.09 µM (active); in [2] it was 2.05 µM (active); in assay [3], 3.22 µM (active); in assay [13] it was 13.1 µM (active). On Protein RecA, the EC50 was 9.37 µM (active).
